# Assay results taken from patent EP3656762A1, “COMPOUNDS FOR THE TREATMENT OF NF-KB-RELATED DISEASES OR DISORDERS” (Instituto Biomar S.A., priority 2018, dated 2020).
# Tested on: Experimental Autoimmune Encephalomyelitis (EAE)
# Conditions: MOG35-55 induced EAE; i.p. daily from day 0; Compound 1 3 mg/kg, Cyclosporine A 10 mg/kg; score 0-8; mean ± SEM
substance,measurement,value
Cyclosporine A,MaxES (Maximum EAE score),3.0±0.1
